The test system of one data set is atg12. As to the kind of experiment: Knockdown of atg12 by siRNA in MDAMC cells. The data set is classed as cell-based, human. From the text:
The following 21-nt siRNA oligos were used:
Atg12 antisense: 5′-[…]dT (SEQ ID NO:6; nt. 687-705 of NM_004707). As a control, lamin A/Cspecific siRNA from Dharmacon (Lamin sense: 5′-CUGGACUUCCAGAAGAACAdTdT (SEQ ID NO:7); Lamin antisense: 5′-UGUUCUUCUGGAAGUCCAGdTdT (SEQ ID NO:8) or firefly luciferase-specific siRNA (GL2 sense: 50-CGUACGCGGAAUACUUCGAdTdT; SEQ ID NO:9; GL2 antisense: 5′-UCGAAGUAUUCCGCGUACGdTdT; SEQ ID NO:10) was used. siRNA duplexes were delivered by transfection with lipofectamine 2000 (Invitrogen) at 30 pmol siRNA+[…] lipofectamine/well in a 24-well format, and effect of knockdown was analyzed after 2-3 days.

For the next data set, the system named is LC3-II. The experiment in a line: LC3-II accumulation by anti-LC3 Western blotting. Format: cell-based, human. The following applies: for LC3-II accumulation, density quantification of Western blots: 10 hours of CQ-treatment; for LC3-II accumulation (Western blot, words): 10 hours; for effect on LC3-II levels and hence macroautophagy: 293T, HaCat and MDAMC, 24 h, 1000 U/ml. As for the experimental part:
Cells were lysed in ice cold lysis buffer (50 mM Tris-HCl pH 8.0, 140 mM NaCl, 1 mM DTT, 1.5 mM MgCl2, 0.5% NP-40 with Complete protease inhibitor cocktail, Roche, Indianapolis, Ind.) for 5 mim on ice (about 10^6 cells/100 μl). Whole cells and cell debris were pelleted by low speed centrifugation (400 g, 3 mil) and cleared supernatants were transferred to a new tube. Protein concentration was determined by BCA protein assay (Pierce, Rockford, Ill.). […] Primary antibodies were visualized with HRP-conjugated goat anti-rabbit IgG (Biorad, Hercules; CA) and the ECLplus detection system (Amersham Biosciences, UK).
This also allowed for extension of the analysis from epithelial cell lines to MHC class II-positive cell types that are more difficult to transfect, such as B cell lines and primary monocytes/dendritic cells. The fact that autophagosome-associated LC3 (called LC3-II) and free cytosolic LC3 (called LC3-I) can be distinguished by their apparent molecular weights in SDS-PAGE gel electrophoresis (16 and 18 lcD, respectively) was used, since it can be quantified separately in anti-LC3 Western blots.
On the technique in general: In western blotting, separated proteins are transferred to a membrane and probed.

For another data set, the system named is MDAMC cells. The experiment in a line: Colocalization of GFP-LC3 with compartment markers by confocal microscopy in MDAMC cells. The data set is classed as cell-based, human.
Data set [1] deals with GFP-LC3 labeled autophagosomes. The data set is classed as cell-based, human. Also on record: accumulation of GFP-LC3-labeled autophagosomes: dose or concentration left out as unconfirmed.
In another data set the test system is immature DCs. The note with it: 10 hr of CQ treatment.
Data set [2] concerns MDAMC cells stably transfected with GFP-LC3. The following applies: CQ-treated versus untreated cells.
Procedure: MDAMC cells stably transfected with GFP-LC3 were fixed for 1 h at RT with 4% paraformaldehyde (PFA, Electron Microscopy Sciences) in 0.25 M Hepes, pH 7.4, followed by overnight fixation at 4° C. in 8% PFA/Hepes. Cells were washed 1× in PBS, quenched with 0.1 M NH4Cl in PBS for 10 min, scraped into 1% gelatin in PBS and then embedded in 5% gelatin in PBS. Small pieces of the gelatin pellets were infiltrated overnight at 4° C. with 2.3 M sucrose in PBS, mounted onto cryospecimen pins and frozen in liquid nitrogen. […] After quenching with 0.1 M NH4Cl in PBS for 10 min, the grids were incubated for 20 min in a solution of 1% fish skin gelatin (FSG, Sigma-Aldrich) in PBS. They were then labeled with rabbit anti-HLA-DR antiserum C6861 (a gift from Peter Cresswell, Yale University, New Haven, Conn.) in PBS-FSH for 30 min at RT, washed 4× in PBS and then incubated with 10 or 15 nm protein A-gold (purchased from the Department of Cell Biology, University of Utrecht, Netherlands). After 4 more washes in PBS, grids were fixed in 1% glutaraldehyde in PBS for 5 min at RT, washed 5× in PBS and again quenched with 0.1 M NH4Cl in PBS for 10 min. The same labeling procedure was repeated with a rabbit anti-GFP antibody (Invitrogen-Molecular Probes, Carlsbad, Calif.) and after final fixation in 1% glutaraldehyde, grids were washed 8× in HPLC-grade water.
[3] abbreviates: MDAMC cells, CQ 50 μM, E64 28 μM, Leupeptin 40 μM and Pepstatin A 15 μM together.

Square brackets hold non-standard residues; d marks the D form. Peptide text beside a SMILES is read from it. * marks the point of attachment. Sta = CC(C)C[C@H](N)[C@@H](O)CC(=O)O; Isovaleryl = CC(C)CC(=O)*

In the case of “ATG12 siRNA: 21-nt siRNA duplex against atg12, SEQ ID NO: 5 and 6 (nt. 687-705 of NM_004707) (chain 1 UCAACUUGCUACUACAUGAUDT; chain 2 UCAUGUAGUAGCAAGUUGAUDT; chemistry not fully specified; listed as Homo sapiens)”, the “accumulation of GFP-LC3+ vesicles upon CQ treatment after knockdown” value with atg12 (MDAMC cells stably expressing GFP-LC3, 2 days after transfection, CQ 6 hr) is listed as “completely abrogates accumulation of these vesicles”. Also, the “colocalization of MP1-LC3-containing vesicles with MHC class II compartments after knockdown” value with atg12 (MDAMC cells stably expressing MP1-LC3, IFNγ 200 U/ml, 50 μM chloroquine last 6 hours) is “completely abrogated”.
Consider `CCN(CC)CCCC(C)Nc1ccnc2cc(Cl)ccc12` (stereo not drawn) [chloroquine], for which the results for the “LC3-II accumulation, density quantification of Western blots” value in the data set on LC3-II (293 cells), in the data set on LC3-II (HaCat cells) and in the data set with LC3-II (MDAMC cells) were 30 fold, 5 fold and 5 fold, respectively. The “onset of increase of cellular LC3-II levels” value in the data set on LC3-II (HaCat cell line, time course) was “already increased 1 hour after CQ-treatment”. Also, the “LC3-II accumulation (Western blot, words)” value is listed as “strong accumulation of LC3-II” in the data set with LC3-II (setting [3]); “strongly accumulated” in the data set on LC3-II (epithelial and B cell lines, CD14+ monocytes, dendritic cells). Also, in the data set with MDAMC cells (IFNγ-treated MDAMC, after chloroquine treatment (38 untreated)), the “HLA-DM colocalization with GFP-LC3, LSM510 histogram tool” value amounted to 45%. In addition, the “MHC class II colocalization with GFP-LC3, LSM510 histogram tool” value in the data set with MDAMC cells (IFNγ-treated MDAMC, after chloroquine treatment (40 untreated)) is 44%. Moreover, the “HLA-DM+ vesicles colocalized with GFP-LC3, LSM 510 profile tool” value in the data set with MDAMC cells (IFNγ-treated MDAMC, after chloroquine treatment (52 untreated)) worked out at 71%. In addition, the “MHC class II+ compartments colocalized with GFP-LC3, LSM 510 profile tool” value in the data set on MDAMC cells (IFNγ-treated MDAMC, after chloroquine treatment (58 untreated)) was 86%. Further, the “EEA1 colocalization with GFP-LC3, histogram analysis” value with MDAMC cells (MDAMC, after chloroquine treatment (7% untreated)) came out at 21%. The “EEA1 colocalization with GFP-LC3, profile analysis” value with MDAMC cells (MDAMC, after chloroquine treatment (9% untreated)) is given as 26%. Further, in data set [1] (B-LCL, immature and mature DCs, chloroquine for 10 hr), the “accumulation of GFP-LC3-labeled autophagosomes” value is given as “strongly accumulated”. In addition, the “accumulation of GFP-LC3 in cytosolic vesicles” value in data set [1] (HaCat, HeLa, MDAMC, 293 cell lines, 10 hours of CQ-treatment) is given as “strongly accumulated in cytosolic vesicles”. Also, the “MHC class II-labeled compartments positive for GFP-LC3” value in the data set with immature DCs is listed as 41% (±7%). The “frequency of GFP-LC3/MHC class II double-labeled multivesicular compartments” value in data set [2] is given as “found much more frequently”.
As to `CC(C)C[C@H](NC(=O)[C@H]1O[C@@H]1C(=O)O)C(=O)NCCCCN=C(N)N` [E64], the “LC3-II accumulation (Western blot, words)” value in the data set with LC3-II (setting [3]) is listed as “strong accumulation of LC3-II”.
As for `CC(=O)N[C@@H](CC(C)C)C(=O)N[C@@H](CC(C)C)C(=O)N[C@H](C=O)CCCNC(=N)N` [Leupeptin], in the data set with LC3-II (setting [3]), the “LC3-II accumulation (Western blot, words)” value is reported as “strong accumulation of LC3-II”.
In the case of `CC(C)CC(=O)N[C@H](C(=O)N[C@H](C(=O)N[C@@H](CC(C)C)[C@@H](O)CC(=O)N[C@@H](C)C(=O)N[C@@H](CC(C)C)[C@@H](O)CC(=O)O)C(C)C)C(C)C` [Pepstatin A] (Isovaleryl-VV[Sta]A[Sta]-OH), in the data set on LC3-II (setting [3]), the “LC3-II accumulation (Western blot, words)” value is recorded as “strong accumulation of LC3-II”.
As to IFN-α, the “effect on LC3-II levels and hence macroautophagy” value in the data set on LC3-II is recorded as “not affected”.
Take IFNγ: Recombinant human IFNγ: the “effect on LC3-II levels and hence macroautophagy” value with LC3-II is given as “not affected”. Moreover, in the data set on MDAMC cells (human epithelial cell lines, IFNγ treatment), the “formation of MHC class II positive compartments” value is recorded as “induced the formation of MHC class II positive compartments”.

For the origin of these results see patent US20100266541A1, “METHODS AND AGENTS FOR […] IMMUNE RESPONSE” (priority 2006, published 2010).
